Data as given in patent US20080275058A1, “N-Substituted-1H-Quinoline-2,4-Diones, Preparation Method Thereof, And Pharmaceutical Composition Containing The Same” (KOREA RESEARCH INSTITUTE OF CHEMICAL TECHNOLOGY, priority 2005, published 2008).
Where two headings read alike, the source gives them in different places.

Tests used:
[1] = target: T1, hD2L (Homo sapiens, UniProt P14416); experiment: Radioligand binding, dopamine D2 ([3H]spiperone); conditions: Table 4; [3H]spiperone 1 nM; read-out: Binding affinity, IC50 (nM) D2
T1 construct: purchased BioSignal Packard Inc., Montreal, Canada
T1 sequence (P14416 whole entry): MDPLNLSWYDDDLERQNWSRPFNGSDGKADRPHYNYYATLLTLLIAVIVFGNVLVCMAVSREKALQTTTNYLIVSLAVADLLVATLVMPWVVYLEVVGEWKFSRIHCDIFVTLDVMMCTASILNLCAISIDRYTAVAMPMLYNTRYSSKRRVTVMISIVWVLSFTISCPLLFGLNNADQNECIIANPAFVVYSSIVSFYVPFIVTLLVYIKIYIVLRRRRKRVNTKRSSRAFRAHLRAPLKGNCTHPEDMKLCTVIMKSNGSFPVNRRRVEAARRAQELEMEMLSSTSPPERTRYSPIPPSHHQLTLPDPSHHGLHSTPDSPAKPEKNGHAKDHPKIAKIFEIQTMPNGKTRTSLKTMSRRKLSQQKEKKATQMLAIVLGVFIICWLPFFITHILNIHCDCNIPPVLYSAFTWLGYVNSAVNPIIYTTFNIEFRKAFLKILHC
How it was run: (§1)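 Membrane competition binding with [3H]spiperone (1 nM) for hD2L and hD3, or [3H]YM-09151-2 (0.06 nM) for hD4.2, each in receptor-specific Tris-HCl pH 7.4 buffer containing Mg2+/EDTA (D3 and D4 also with K+, Ca2+; D3 with 120 mM NaCl). Compounds were tested at 7-8 concentrations in duplicate, and IC50 was derived by nonlinear regression across three assays.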

[2] = target: T2, 5-HT1a (Homo sapiens, UniProt P08908); experiment: Radioligand binding, 5-HT1a ([3H]8-OH-DPAT); conditions: Table 4; [3H]8-OH-DPAT 0.5 nM; read-out: Binding affinity, IC50 (nM) 5-HT1a
T2 construct: purchased Euroscreen/BioSignal Packard Inc
T2 sequence (P08908 1-422): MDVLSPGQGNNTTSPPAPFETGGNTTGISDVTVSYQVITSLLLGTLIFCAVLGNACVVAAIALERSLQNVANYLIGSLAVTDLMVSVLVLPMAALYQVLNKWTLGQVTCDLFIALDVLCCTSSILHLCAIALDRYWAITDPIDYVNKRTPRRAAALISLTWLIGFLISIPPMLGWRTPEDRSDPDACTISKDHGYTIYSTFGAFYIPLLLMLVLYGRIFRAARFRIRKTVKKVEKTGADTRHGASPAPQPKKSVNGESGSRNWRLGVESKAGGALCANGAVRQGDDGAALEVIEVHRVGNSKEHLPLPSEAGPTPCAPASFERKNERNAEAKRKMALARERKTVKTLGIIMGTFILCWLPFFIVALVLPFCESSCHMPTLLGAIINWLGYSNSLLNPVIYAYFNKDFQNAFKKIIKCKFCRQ
How it was run: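 Displacement of the radiolabel is read on purchased receptor membranes. Conditions follow the vendor's standard method.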

[3] = target: T3, 5-HT2a (Homo sapiens, UniProt P28223); experiment: Radioligand binding, 5-HT2a ([3H]Ketanserin); conditions: Table 4; [3H]Ketanserin 1 nM; read-out: Binding affinity, IC50 (nM) 5-HT2a
T3 construct: purchased Euroscreen/BioSignal Packard Inc
T3 sequence (P28223 whole entry): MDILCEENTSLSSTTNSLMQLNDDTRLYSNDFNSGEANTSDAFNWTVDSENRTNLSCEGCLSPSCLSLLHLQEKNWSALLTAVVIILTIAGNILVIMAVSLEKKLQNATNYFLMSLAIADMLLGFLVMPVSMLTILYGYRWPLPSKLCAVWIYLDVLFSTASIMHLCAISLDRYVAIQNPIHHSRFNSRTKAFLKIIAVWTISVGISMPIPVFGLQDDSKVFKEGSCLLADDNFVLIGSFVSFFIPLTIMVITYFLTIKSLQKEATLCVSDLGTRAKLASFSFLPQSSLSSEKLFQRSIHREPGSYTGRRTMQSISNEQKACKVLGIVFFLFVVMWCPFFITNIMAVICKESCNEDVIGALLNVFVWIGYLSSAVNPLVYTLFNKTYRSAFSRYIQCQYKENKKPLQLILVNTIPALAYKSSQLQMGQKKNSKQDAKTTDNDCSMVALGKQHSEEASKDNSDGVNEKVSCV

[4] = target: T4, 5-HT2c (Homo sapiens, UniProt P28335); experiment: Radioligand binding, 5-HT2c ([3H]Mesulergine); conditions: Table 4; [3H]Mesulergine 1 nM; read-out: Binding affinity, IC50 (nM) 5-HT2c
T4 construct: purchased Euroscreen/BioSignal Packard Inc
T4 sequence (P28335 33-458): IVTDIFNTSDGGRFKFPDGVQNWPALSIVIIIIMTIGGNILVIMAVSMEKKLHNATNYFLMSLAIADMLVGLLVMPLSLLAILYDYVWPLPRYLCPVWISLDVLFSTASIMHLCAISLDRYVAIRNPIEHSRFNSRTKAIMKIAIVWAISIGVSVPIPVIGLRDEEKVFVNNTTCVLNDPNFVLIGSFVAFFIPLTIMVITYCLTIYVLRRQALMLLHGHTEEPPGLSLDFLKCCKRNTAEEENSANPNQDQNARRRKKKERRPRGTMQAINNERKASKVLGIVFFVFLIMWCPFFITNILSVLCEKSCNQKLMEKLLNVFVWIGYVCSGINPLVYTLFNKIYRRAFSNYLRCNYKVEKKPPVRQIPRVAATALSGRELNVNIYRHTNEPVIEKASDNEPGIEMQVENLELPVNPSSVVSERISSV

[5] = target: D1 (Homo sapiens, UniProt P21728); experiment: Radioligand binding, dopamine D1; conditions: Table 4; read-out: Binding affinity, IC50 (nM) D1
Sequence of D1 (P21728 whole entry): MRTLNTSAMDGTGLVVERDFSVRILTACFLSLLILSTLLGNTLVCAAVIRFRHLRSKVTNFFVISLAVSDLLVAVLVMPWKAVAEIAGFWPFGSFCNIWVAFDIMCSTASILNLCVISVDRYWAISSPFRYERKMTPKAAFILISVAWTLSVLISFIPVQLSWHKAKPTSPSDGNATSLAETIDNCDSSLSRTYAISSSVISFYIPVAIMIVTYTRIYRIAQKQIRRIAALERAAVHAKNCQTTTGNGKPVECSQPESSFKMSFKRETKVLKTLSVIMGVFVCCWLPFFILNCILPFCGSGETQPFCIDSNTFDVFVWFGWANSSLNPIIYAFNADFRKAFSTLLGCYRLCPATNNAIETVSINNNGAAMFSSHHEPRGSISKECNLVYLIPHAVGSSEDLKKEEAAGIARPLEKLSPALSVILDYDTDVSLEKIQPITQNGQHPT

[6] = test system: mice; experiment: Rotarod deficit in mice; format: in vivo, mouse
Procedure: (§2) The mouse was placed on a 1 inch diameter knurled plastic rod rotating at 6 rpm (Ugo-Basile, Milano, Italy), and the rotarod deficit (%) was obtained by counting the number of animals fallen from the rotating rod within 1 min [Dunham et al., 1957] at 60, 90 and 120 min after the injection of the compound according to the invention(200, 300 or 400 ? ). […] The compounds of the examples were suspended in 3% Tween 80 solution, and were administered (p.o.) 60 min before the testing.

[7] = Rotarod deficit in mice; format: in vivo, mouse; conditions: mouse, in vivo, po, unit printed as image, read-out: TD50 (median neurotoxic dose)
Procedure: as §2

[8] = target: T5, 5-HT7 (Homo sapiens, UniProt P34969); experiment: Radioligand binding, 5-HT7 ([3H]LSD); conditions: Table 4; [3H]LSD 3 nM; read-out: Binding affinity, IC50 (nM) 5-HT7
T5 construct: purchased Euroscreen/BioSignal Packard Inc
T5 sequence (P34969 whole entry): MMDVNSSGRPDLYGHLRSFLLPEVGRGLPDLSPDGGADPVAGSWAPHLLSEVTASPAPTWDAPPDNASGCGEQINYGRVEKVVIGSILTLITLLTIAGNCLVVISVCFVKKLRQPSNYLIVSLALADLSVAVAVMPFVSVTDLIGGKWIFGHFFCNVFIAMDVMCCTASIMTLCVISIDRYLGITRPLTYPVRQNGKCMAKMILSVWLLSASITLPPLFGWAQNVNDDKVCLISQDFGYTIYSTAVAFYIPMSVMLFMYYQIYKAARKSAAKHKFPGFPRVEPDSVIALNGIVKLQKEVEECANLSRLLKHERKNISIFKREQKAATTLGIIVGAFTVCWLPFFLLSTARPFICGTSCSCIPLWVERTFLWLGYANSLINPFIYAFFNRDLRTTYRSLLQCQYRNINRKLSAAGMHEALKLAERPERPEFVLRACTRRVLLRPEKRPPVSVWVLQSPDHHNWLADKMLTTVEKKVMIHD

[9] = target: T6, hD4.2 receptor (Homo sapiens, UniProt P21917, DEL265-296); experiment: Radioligand binding, dopamine D4 ([3H]YM-09151-2); conditions: Table 4; [3H]YM-09151-2 0.06 nM; read-out: Binding affinity, IC50 (nM) D4
T6 construct: purchased BioSignal Packard Inc., Montreal, Canada
T6 sequence (P21917 with tags, fused parts or gaps DEL265-296): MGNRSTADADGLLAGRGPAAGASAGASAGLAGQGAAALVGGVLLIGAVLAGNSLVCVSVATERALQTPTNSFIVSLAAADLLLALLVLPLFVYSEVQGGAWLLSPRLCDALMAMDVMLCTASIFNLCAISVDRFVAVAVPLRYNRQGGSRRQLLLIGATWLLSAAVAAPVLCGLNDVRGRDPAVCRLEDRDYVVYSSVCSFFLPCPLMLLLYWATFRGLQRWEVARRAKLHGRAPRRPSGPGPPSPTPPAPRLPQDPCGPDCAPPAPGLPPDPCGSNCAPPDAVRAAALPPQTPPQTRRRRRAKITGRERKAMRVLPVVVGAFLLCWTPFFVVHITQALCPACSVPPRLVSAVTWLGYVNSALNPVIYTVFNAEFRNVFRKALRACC
How it was run: as §1

[10] = target: T7, hD3 (Homo sapiens, UniProt P35462); experiment: Radioligand binding, dopamine D3 ([3H]spiperone); conditions: Table 4; [3H]spiperone 1 nM; read-out: Binding affinity, IC50 (nM) D3
T7 construct: purchased BioSignal Packard Inc., Montreal, Canada
T7 sequence (P35462 whole entry): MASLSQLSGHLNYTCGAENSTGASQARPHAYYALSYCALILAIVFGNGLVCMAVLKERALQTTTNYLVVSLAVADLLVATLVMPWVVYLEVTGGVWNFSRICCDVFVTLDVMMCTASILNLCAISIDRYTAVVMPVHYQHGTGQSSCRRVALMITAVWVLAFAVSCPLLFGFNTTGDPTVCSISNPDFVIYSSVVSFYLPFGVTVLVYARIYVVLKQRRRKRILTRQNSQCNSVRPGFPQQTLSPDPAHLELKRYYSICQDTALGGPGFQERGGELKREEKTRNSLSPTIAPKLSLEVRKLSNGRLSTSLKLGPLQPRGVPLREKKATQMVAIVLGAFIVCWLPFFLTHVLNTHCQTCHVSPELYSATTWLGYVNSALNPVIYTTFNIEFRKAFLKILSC
How it was run: as §1

[11] = target: T8, Human serotonin 5-HT6 receptor (Homo sapiens, UniProt P50406); experiment: [3H]LSD binding assay on cloned 5-HT6 receptor membranes
T8 construct: made in house; host or cells: insect Sf21 cells (baculovirus vector BacPAK8)
T8 sequence (P50406 whole entry): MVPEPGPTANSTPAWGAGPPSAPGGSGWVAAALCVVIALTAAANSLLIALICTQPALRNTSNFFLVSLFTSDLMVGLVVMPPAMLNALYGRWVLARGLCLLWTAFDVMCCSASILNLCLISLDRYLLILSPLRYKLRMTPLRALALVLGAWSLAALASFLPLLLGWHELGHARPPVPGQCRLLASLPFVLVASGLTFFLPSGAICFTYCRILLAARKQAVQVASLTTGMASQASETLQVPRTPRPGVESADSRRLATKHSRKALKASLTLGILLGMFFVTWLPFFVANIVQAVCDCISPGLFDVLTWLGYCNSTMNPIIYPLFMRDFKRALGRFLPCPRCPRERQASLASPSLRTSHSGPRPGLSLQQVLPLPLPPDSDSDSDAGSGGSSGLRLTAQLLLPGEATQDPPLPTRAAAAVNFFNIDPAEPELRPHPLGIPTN

[12] = Table 2, 1.87 nM [3H]LSD, 37 C, 60 min, read-out: IC50 (nM), binding affinity to the 5-HT6 receptor
[13] = Table 4, read-out: Binding affinity, IC50 (nM) 5-HT6

Row | Compound | IC50 [1] [nM] | IC50 [2] [nM] | IC50 [3] [nM] | IC50 [4] [nM] | IC50 [5] [nM] | Rotarod deficit (%) ([6]; 200 p.o. (dose unit not given)) | Rotarod deficit (%) ([6]; 300 p.o. (dose unit not given)) | Rotarod deficit (%) ([6]; 400 p.o. (dose unit not given)) | TD50 at 120 min [7] [mg/kg] | IC50 [8] [nM] | IC50 [9] [nM] | IC50 [10] [nM] | IC50 [11, 12] [nM] | IC50 [11, 13] [nM] | melting point [°C] | binding affinity at 5-HT6 receptor labeled by [3H]LSD, in words ([11]; comment on Table 2)
1 | CN1CCN(c2cc(Cl)cc3c2C(=O)C(C)(c2ccc(O)cc2)C(=O)N3Cc2cccc(N)c2)CC1 (centres unmarked) [Example 10, 1-(3-Amino-benzyl)-7-chloro-3-(4-hydroxy-phenyl)-3-methyl-5-(4-methyl-piperazin-1-yl)-1H-quinoline-2,4-dione] | > 10000 | > 10000 | > 10000 | > 10000 | > 10000 | 0 | 0 | 0 | > 400 | > 10000 | > 10000 | 5370 | 6.2 | 6.2 | – | –
2 | COc1ccc(C2(C)C(=O)c3c(N4CCNCC4)cc(Cl)cc3N(Cc3ccc4ccccc4n3)C2=O)cc1 (centres unmarked) [Example 44, 7-Chloro-3-(4-methoxy-phenyl)-3-methyl-5-piperazin-1-yl-1-quinolin-2-ylmethyl-1H-quinoline-2,4-dione] | > 1000 | 7530 | 6100 | 7690 | 7650 | – | – | – | – | 7650 | 9270 | 9840 | 6.9 | 19 | 200 to 201 | –
3 | CC1(c2ccc(O)cc2)C(=O)c2c(N3CCNCC3)cc(Cl)cc2N(Cc2ccc3ccccc3n2)C1=O (centres unmarked) [Example 45, 7-Chloro-3-(4-hydroxy-phenyl)-3-methyl-5-piperazin-1-yl-1-quinolin-2-ylmethyl-1H-quinoline-2,4-dione] | 7680 | > 10000 | > 10000 | > 1000 | 8410 | – | – | – | – | 9450 | 8510 | 9160 | 11.4 | 16.4 | 278 to 279 | –
4 | CCN1C(=O)C(C)(c2ccc(OC)cc2)C(=O)c2c(N3CCNCC3)cc(Cl)cc21 (centres unmarked) [Example 46, 7-Chloro-1-ethyl-3-(4-methoxy-phenyl)-3-methyl-5-piperazin-1-yl-1H-quinoline-2,4-dione] | 8570 | 6700 | 6360 | 9110 | 7890 | – | – | – | – | 7950 | 9570 | 9410 | 49.1 | 15.8 | 127 to 129 | –
5 | COc1ccc(C2(C)C(=O)c3c(N4CCNCC4)cc(Cl)cc3N(CC3CCCCC3)C2=O)cc1 (centres unmarked) [Example 48, 7-Chloro-1-cyclohexylmethyl-3-(4-methoxy-phenyl)-3-methyl-5-piperazin-1-yl-1H-quinoline-2,4-dione] | 7510 | 7540 | 5910 | 8660 | 7650 | – | – | – | – | 8520 | 9010 | 8990 | 251 | 16 | 127 to 128 | –
6 | CC1(c2ccc(O)cc2)C(=O)c2c(N3CCNCC3)cc(Cl)cc2N(CC2CCCCC2)C1=O (centres unmarked) [Example 49, 7-Chloro-1-cyclohexylmethyl-3-(4-hydroxy-phenyl)-3-methyl-5-piperazin-1-yl-1H-quinoline-2,4-dione] | > 10000 | 6300 | 5810 | 7530 | 8140 | – | – | – | – | 9510 | 8780 | 8680 | 11.7 | 17.5 | 175 to 176 | –
7 | COc1cccc(C2(C)C(=O)c3c(N4CCNCC4)cc(Cl)cc3N(Cc3ccccc3)C2=O)c1 (centres unmarked) [Example 50, 1-Benzyl-7-chloro-3-(3-methoxy-phenyl)-3-methyl-5-piperazin-1-yl-1H-quinoline-2,4-dione] | 7190 | > 1000 | 9150 | 7470 | 7740 | – | – | – | – | 7640 | 9040 | 9760 | 1.8 | 18.4 | 110 to 112 | significant affinities
8 | CC1(c2cccc(O)c2)C(=O)c2c(N3CCNCC3)cc(Cl)cc2N(Cc2ccccc2)C1=O (centres unmarked) [Example 51, 1-Benzyl-7-chloro-3-(3-hydroxy-phenyl)-3-methyl-5-piperazin-1-yl-1H-quinoline-2,4-dione] | 8650 | 8450 | 7550 | 8740 | 6390 | – | – | – | – | 7580 | 9460 | 9880 | 6.2 | 20.7 | 238 to 240 | –
